{"source": "patent US8609591B2", "about": "“Herbicidal composition” (Ishihara Sangyo Kaisha, Ltd., priority 2010, dated 2013)", "key": {"[1]": {"system": "barnyardgrass (Echinochloa crus-galli L.)", "test": "Foliar treatment pot test, growth inhibition rate visually observed", "assay_type": "in vivo", "conditions": "for inhibition at 18.75 g/ha / inhibition at 37.5 g/ha: 8 DAT", "description": "(§1) Upland field soil was put into a 1/1,000,000 hectare pot, and seeds of various plants (barnyardgrass (Echinochloa crus-galli L.) and velvetleaf (Abutilon theophrasti MEDIC.) were sown. When the respective plants reached predetermined leaf stage, herbicidal compositions in predetermined amounts were diluted with water in an amount corresponding to 300 L/ha and applied for foliar treatment by a small sprayer.\n(§2) On the 8 to 14 days after treatment (DAT), the state of growth of the respective plants was visually observed to determine the growth inhibition rate (measured value) in accordance with the following evaluation standard. Further, in accordance with the Colby's formula, the growth inhibition rate (calculated value) was calculated. In Tables, with respect to the benzoylpyrazole compound represented by the formula (I), Compound Nos. in Table 1 are described, and with respect to other compounds, common names are described. […]"}, "[2]": {"system": "velvetleaf (Abutilon theophrasti MEDIC.)", "test": "Foliar treatment pot test, growth inhibition rate visually observed", "assay_type": "in vivo", "conditions": "for inhibition at 18.75 g/ha / inhibition at 37.5 g/ha: 8 DAT", "description": "as §1, §2"}, "[3]": {"conditions": "192 h, read-out: Growth inhibition rate (%) of barnyardgrass, Measured value"}, "[4]": {"conditions": "192 h, read-out: Growth inhibition rate (%) of velvetleaf, Measured value"}, "[5]": {"conditions": "192 h, 2.8 to 3.4 leaf stage, foliar treatment, Table 2-5, read-out: Growth inhibition rate (%) of barnyardgrass, Measured value"}, "[6]": {"conditions": "192 h, 2.8 to 3.4 leaf stage, foliar treatment, read-out: Growth inhibition rate (%) of barnyardgrass, Measured value"}, "[7]": {"conditions": "192 h, 3.6 to 4.5 leaf stage, foliar treatment, Table 2-3, read-out: Growth inhibition rate (%) of barnyardgrass, Measured value"}, "[8]": {"conditions": "192 h, 3.6 to 4.5 leaf stage, foliar treatment, Table 2-10, read-out: Growth inhibition rate (%) of barnyardgrass, Measured value"}, "[9]": {"conditions": "192 h, 3.6 to 4.5 leaf stage, foliar treatment, Table 2-12, read-out: Growth inhibition rate (%) of barnyardgrass, Measured value"}, "[10]": {"conditions": "192 h, 1.8 to 2.4 leaf stage, foliar treatment, Table 2-2, read-out: Growth inhibition rate (%) of velvetleaf, Measured value"}, "[11]": {"conditions": "192 h, 1.8 to 2.4 leaf stage, foliar treatment, Table 2-6, read-out: Growth inhibition rate (%) of velvetleaf, Measured value"}, "[12]": {"conditions": "192 h, 2.6 to 3.2 leaf stage, foliar treatment, Table 2-4, read-out: Growth inhibition rate (%) of velvetleaf, Measured value"}, "[13]": {"conditions": "192 h, 2.6 to 3.2 leaf stage, foliar treatment, Table 2-11, read-out: Growth inhibition rate (%) of velvetleaf, Measured value"}, "[14]": {"conditions": "192 h, 2.6 to 3.2 leaf stage, foliar treatment, Table 2-13, read-out: Growth inhibition rate (%) of velvetleaf, Measured value"}}, "note": "Where two headings read alike, the source gives them in different places.", "data": [{"smiles": "Cc1c(C(=O)c2cnn(C)c2O)ccc(S(C)(=O)=O)c1C1=NOCC1", "note": "[Topramezone]", "values": [{"measurement": "inhibition at 7 g/ha", "setting": "[1]; [3]", "value": 40, "unit": "%"}, {"measurement": "inhibition at 15 g/ha", "setting": "[1]; [3]", "value": 40, "unit": "%"}, {"measurement": "inhibition at 7 g/ha", "setting": "[2]; [4]", "value": 30, "unit": "%"}, {"measurement": "inhibition at 15 g/ha", "setting": "[2]; [4]", "value": 30, "unit": "%"}]}, {"smiles": "CS(=O)(=O)c1ccc(C(=O)C2C(=O)CCCC2=O)c(Cl)c1", "note": "[Sulcotrione]", "values": [{"measurement": "inhibition at 75 g/ha", "setting": "[1]; [3]", "value": 40, "unit": "%"}, {"measurement": "inhibition at 150 g/ha", "setting": "[1]; [3]", "value": 45, "unit": "%"}, {"measurement": "inhibition at 75 g/ha", "setting": "[2]; [4]", "value": 30, "unit": "%"}, {"measurement": "inhibition at 150 g/ha", "setting": "[2]; [4]", "value": 30, "unit": "%"}]}, {"smiles": "CC(C)c1nn(C(=O)NC(C)(C)C)c(=O)n1N", "note": "[Amicarbazone]", "values": [{"measurement": "inhibition at 18.75 g/ha", "setting": "[1]; [5]", "value": 30, "unit": "%"}, {"measurement": "inhibition at 18.75 g/ha", "setting": "[1]; [6]", "value": 30, "unit": "%"}, {"measurement": "inhibition at 18.75 g/ha", "setting": "[1]; [7]", "value": 20, "unit": "%"}, {"measurement": "inhibition at 18.75 g/ha", "setting": "[1]; [8]", "value": 20, "unit": "%"}, {"measurement": "inhibition at 18.75 g/ha", "setting": "[1]; [9]", "value": 20, "unit": "%"}, {"measurement": "inhibition at 37.5 g/ha", "setting": "[1]; [5]", "value": 50, "unit": "%"}, {"measurement": "inhibition at 37.5 g/ha", "setting": "[1]; [6]", "value": 50, "unit": "%"}, {"measurement": "inhibition at 37.5 g/ha", "setting": "[1]; [7]", "value": 25, "unit": "%"}, {"measurement": "inhibition at 37.5 g/ha", "setting": "[1]; [8]", "value": 25, "unit": "%"}, {"measurement": "inhibition at 37.5 g/ha", "setting": "[1]; [9]", "value": 25, "unit": "%"}, {"measurement": "inhibition at 75 g/ha", "setting": "[1]; 264 h, 75 g/ha, 3.2 to 4.1 leaf stage, 11 DAT, foliar treatment, read-out: Growth inhibition rate (%) of barnyardgrass, Measured value", "value": 40, "unit": "%"}, {"measurement": "inhibition at 150 g/ha", "setting": "[1]; 264 h, 150 g/ha, 3.2 to 4.1 leaf stage, 11 DAT, foliar treatment, read-out: Growth inhibition rate (%) of barnyardgrass, Measured value", "value": 73, "unit": "%"}, {"measurement": "inhibition at 30 g/ha", "setting": "[1]; 336 h, 30 g/ha, 4.2 to 5.3 leaf stage, 14 DAT, foliar treatment, read-out: Growth inhibition rate (%) of barnyardgrass, Measured value", "value": 0, "unit": "%"}, {"measurement": "inhibition at 50 g/ha", "setting": "[1]; 336 h, 50 g/ha, 4.2 to 5.3 leaf stage, 14 DAT, foliar treatment, read-out: Growth inhibition rate (%) of barnyardgrass, Measured value", "value": 0, "unit": "%"}, {"measurement": "inhibition at 75 g/ha", "setting": "[1]; 336 h, 75 g/ha, 4.2 to 5.3 leaf stage, 14 DAT, foliar treatment, read-out: Growth inhibition rate (%) of barnyardgrass, Measured value", "value": 15, "unit": "%"}, {"measurement": "inhibition at 18.75 g/ha", "setting": "[2]; [10]", "value": 40, "unit": "%"}, {"measurement": "inhibition at 18.75 g/ha", "setting": "[2]; [11]", "value": 40, "unit": "%"}, {"measurement": "inhibition at 18.75 g/ha", "setting": "[2]; [12]", "value": 50, "unit": "%"}, {"measurement": "inhibition at 18.75 g/ha", "setting": "[2]; [13]", "value": 50, "unit": "%"}, {"measurement": "inhibition at 18.75 g/ha", "setting": "[2]; [14]", "value": 50, "unit": "%"}, {"measurement": "inhibition at 37.5 g/ha", "setting": "[2]; [10]", "value": 45, "unit": "%"}, {"measurement": "inhibition at 37.5 g/ha", "setting": "[2]; [11]", "value": 45, "unit": "%"}, {"measurement": "inhibition at 37.5 g/ha", "setting": "[2]; [12]", "value": 60, "unit": "%"}, {"measurement": "inhibition at 37.5 g/ha", "setting": "[2]; [13]", "value": 60, "unit": "%"}, {"measurement": "inhibition at 37.5 g/ha", "setting": "[2]; [14]", "value": 60, "unit": "%"}, {"measurement": "inhibition at 30 g/ha", "setting": "[2]; 336 h, 30 g/ha, 4 to 4.5 leaf stage, 14 DAT, foliar treatment, read-out: Growth inhibition rate (%) of velvetleaf, Measured value", "value": 35, "unit": "%"}, {"measurement": "inhibition at 50 g/ha", "setting": "[2]; 336 h, 50 g/ha, 4 to 4.5 leaf stage, 14 DAT, foliar treatment, read-out: Growth inhibition rate (%) of velvetleaf, Measured value", "value": 55, "unit": "%"}, {"measurement": "inhibition at 75 g/ha", "setting": "[2]; 336 h, 75 g/ha, 4 to 4.5 leaf stage, 14 DAT, foliar treatment, read-out: Growth inhibition rate (%) of velvetleaf, Measured value", "value": 55, "unit": "%"}]}]}
